Source: patent US20180193336A1, “SPRAY DRY FORMULATIONS” (Pulmokine, Inc., priority 2013, published 2018)
Read-outs that look alike come from different tables or passages of the source. Marks after values point to notes of the source that are not given here.

Assays:
[1] = test system: PDGFAA stimulated AKT phosphorylation; assay: In cell Western, PDGFAA stimulated AKT phosphorylation in human fetal lung fibroblasts; format: cell-based; settings: for IC50: Fibroblast
Experimental: HLFs were maintained in subculture at no more than 6 passages in DMEM with 5% FBS and 4 mM Glutamax at 37° C., 5% CO2. HLFs were plated and grown to 70-80% confluence in 96 well plates then serum-starved for 48 hours. […] Antibodies were detected using IRDye 680LT goat anti-mouse IgG and IRDye 800 W goat α-rabbit IgG conjugated antibodies. After washing, the signal was quantified using an Odyssey Infrared Imaging System (LI-COR). Phosphoprotein signal (800 nm) was normalized to total protein signal (700 nm) acquired from each well and experimental duplicates on same plate were averaged and reported.

[2] = test system: PDGFBB stimulated phosphorylation of ERK1 and ERK2; assay: PDGFBB stimulated phosphorylation of ERK1 and ERK2 in human fetal lung fibroblasts; format: cell-based
From the text: Data shown are mean±SEM. […] PK10453=structure 2; PK10571=structure 2a. Platelet derived growth factor receptor alpha=PDGFR-alpha=PDGFR-α=PDGF receptor alpha=PDGF alpha receptor. Platelet derived growth factor receptor beta=PDGFR-beta=PDGFRβ=PDGF receptor beta=PDGF beta receptor.

[3] = Aerosol particle size of nebulized drug, Anderson cascade impactor; format: physicochemical; settings: 20 mg/ml in 1M tosylic acid, PARI nebulizer
Experimental: PK10453 (Structure 2) was dissolved at a concentration of 20 mg/ml in 1M tosylic acid. Nebulization was performed with a PARI Nebulizer with an air pressure of 12.5 psi. The aerosol droplets were neutralized by ammonia vapor that was passed into the aerosol air stream. The particles were then dried by flowing through an annular ring of silica bead cartridges prior to reaching the exposure chamber. The 6-port exposure chamber was a nose-only exposure system custom designed and built by Powerscope Inc. (Minneapolis, Minn.). The vacuum flow rate at each port was separately controlled by a flow meter. The aerosol particle size was measured at the exit port of the drying column with an Anderson (Mark II) cascade impactor. The mass median aerodynamic diameter (MMAD) was 2 μm and the associated geometric standard deviation (GSD) was 1.6.

[4] = test system: rat MCT+PN model; assay: Pulmonary arteriole morphometry and occlusion analysis in rat MCT+PN model; format: in vivo
From the text: At the end of the study, the heart and lungs were removed from ventilated animals under general anesthesia. Heparinized saline was infused under pressure through the main pulmonary artery. The right upper lobe was immediately tied off and placed in liquid nitrogen for Western blot and NanoPro 100 assay analysis. The heart was removed, and the RV free wall, interventricular septum and LV free wall dissected and weighed. Buffered formalin (10%) was infused under pressure both through the pulmonary artery and the trachea. Morphometric analysis was performed on H&E stained formalin fixed tissue sectioned at 8 μm. The media area and lumen area of pulmonary arterioles were measured with Image J software by a technician blinded to treatment group. Measurements were made on 20 pulmonary arterioles per section. The ratio of the lumen area to the total media area was determined. This ratio normalizes the variation in total pulmonary arteriole area. In addition, occlusive analysis was performed in the monocrotaline plus pneumonectomy study (specifically efficacy study 5) according to the method of Homma et al., “Involvement of RhoA/Rho kinase signaling in protection against monocrotaline-induced pulmonary hypertension in pneumonectomized rats by dehydroepiandrosterone.” Am J Physiol Lung Cell Mol Physiol. Vol. 295:L71-8 (2008). Briefly, pre-capillary arterioles were assigned grade 0 for no evidence of neointimal lesions, grade 1 for less than 50% luminal occlusion, and grade 2 for greater than 50% occlusion. Masson Trichrome stains were performed on lung sections from the MCT+PN model.

[5] = test system: rat MCT+PN model; assay: Two-chamber plethysmography, PK10453 in rat MCT+PN model; format: in vivo; settings: for MV (minute ventilation) / PEF (peak expiratory flow) / PIF (peak inspiratory flow) / SRaw (airway resistance) / TV (tidal volume) / f (breathing frequency): MCT+PN, mean
Experimental: Plethysmography was performed with an EMKA dual chamber plethysmograph and IOX software. Parameters measured included breathing frequency, tidal volume, minute ventilation, peak inspiratory and expiratory flow, and airway resistance (SRaw). Animals were acclimatized to the plethysmograph for three days prior to first data acquisition. Measurements were made prior to the first dose of drug and at the end of the study.

[6] = test system: rat monocrotaline plus pneumonectomy model; assay: Trichrome stain of lung sections, rat monocrotaline plus pneumonectomy model; format: in vivo; settings: inhaled; compared to vehicle treated animal; FIG. 42
From the text: At the end of the study, the heart and lungs were removed from ventilated animals under general anesthesia. Heparinized saline was infused under pressure through the main pulmonary artery. The right upper lobe was immediately tied off and placed in liquid nitrogen for Western blot and NanoPro 100 assay analysis. The heart was removed, and the RV free wall, interventricular septum and LV free wall dissected and weighed. Buffered formalin (10%) was infused under pressure both through the pulmonary artery and the trachea. Morphometric analysis was performed on H&E stained formalin fixed tissue sectioned at 8 μm. The media area and lumen area of pulmonary arterioles were measured with Image J software by a technician blinded to treatment group. Measurements were made on 20 pulmonary arterioles per section. The ratio of the lumen area to the total media area was determined. This ratio normalizes the variation in total pulmonary arteriole area. In addition, occlusive analysis was performed in the monocrotaline plus pneumonectomy study (specifically efficacy study 5) according to the method of Homma et al., “Involvement of RhoA/Rho kinase signaling in protection against monocrotaline-induced pulmonary hypertension in pneumonectomized rats by dehydroepiandrosterone.” Am J Physiol Lung Cell Mol Physiol. Vol. 295:L71-8 (2008). […]

COc1cc(-c2cncc(N[C@@H](C)c3cccc(NC(=O)c4cncc(C)c4)c3)n2)ccc1O [PK10453, (S)—N-(3-(1-((6-(4-hydroxy-β-methoxyphenyl)pyrazin-2yl)amino)ethyl)phenyl)-5-methylnicotinamide]
IC50 for PDGFAA stimulated phosphorylation of AKT, PK10453 compared with imatinib [1]: not significantly different | IC50 ([1]; legend of FIG. 2 PANEL A, read-out: IC50 for PDGFAA stimulation of pAKT(S473)): 300 to 600 nM | IC50 ([1]; legend of FIG. 2 PANEL B, read-out: IC50 for PDGFAA stimulation of pAKT(T308)): 300 to 600 nM | decrease of PDGF BB stimulated ppERK1 and ppERK2 relative to imatinib ([2]; 1 uM and 10 uM): more effective | decrease of PDGFBB stimulated ppERK1 formation ([2]; 1 uM, PDGF BB 10 ng/ml): effective | ratio diphosphorylated ERK2 to total ERK2 (ppERK2/ERK2) ([2]; PDGFAA or PDGFBB stimulation (10 ng/ml), 1 uM and 10 uM): significantly decreased | ratio diphosphorylated ERK1 to total ERK1 (ppERK1/ERK1) ([2]; PDGFAA or PDGFBB stimulation, 1 μM and 10 μM): significantly decreased | mass median aerodynamic diameter (MMAD) of dried nebulized aerosol [3]: 2 μm | Grade 2 occlusion lesions ([4]; D4): 28.5±4.2% | lumen area to media area ratio (L/M) ([4]; D4, FIG. 7 PANEL C): 0.33±0.06 | Grade 2 occlusion lesions ([4]; D8): 11.4±4.1% | lumen area to media area ratio (L/M) ([4]; D8, FIG. 7 PANEL C): 0.72±0.05 | lumen area to media area ratio (L/M) ([4]; higher dose D8, FIG. 9): 1.17±0.07 | lumen area to media area ratio (L/M) ([4]; lower dose D4, FIG. 9): 0.75±0.14 | MV (minute ventilation) ([5]; D4, Day 1): 223.24 mL/min | PEF (peak expiratory flow) ([5]; D4, Day 1): 11.04 | PIF (peak inspiratory flow) ([5]; D4, Day 1): 9.82 | SRaw (airway resistance) ([5]; D4, Day 1): 39.73 | TV (tidal volume) ([5]; D4, Day 1): 1.00 mL | f (breathing frequency) ([5]; D4, Day 1): 224.68 breaths per minute | MV (minute ventilation) ([5]; D4, Day 15): 176.12§ mL/min | PEF (peak expiratory flow) ([5]; D4, Day 15): 9.33* | PIF (peak inspiratory flow) ([5]; D4, Day 15): 7.82* | SRaw (airway resistance) ([5]; D4, Day 15): 33.09 | TV (tidal volume) ([5]; D4, Day 15): 0.85 mL | f (breathing frequency) ([5]; D4, Day 15): 217.12 breaths per minute | MV (minute ventilation) ([5]; D8, Day 1): 174.68 mL/min | PEF (peak expiratory flow) ([5]; D8, Day 1): 9.43 | PIF (peak inspiratory flow) ([5]; D8, Day 1): 8.54 | SRaw (airway resistance) ([5]; D8, Day 1): 36.01 | TV (tidal volume) ([5]; D8, Day 1): 0.74 mL | f (breathing frequency) ([5]; D8, Day 1): 259.13 breaths per minute | MV (minute ventilation) ([5]; D8, Day 15): 128.49 mL/min | PEF (peak expiratory flow) ([5]; D8, Day 15): 6.64 | PIF (peak inspiratory flow) ([5]; D8, Day 15): 6.06 | SRaw (airway resistance) ([5]; D8, Day 15): 49.26 | TV (tidal volume) ([5]; D8, Day 15): 0.63 mL | f (breathing frequency) ([5]; D8, Day 15): 232.11 breaths per minute | effect on lung function ([5]; inhaled, 2-wk course): did not adversely affect lung function | collagen deposition in lung sections (trichrome stain) [6]: less collagen deposition
